pIC50: −log10 of the molar value.
Key:
MAO (substrate 5-HT) = target: T1, MAO (substrate 5-HT) (Rattus norvegicus, UniProt P21396); assay: MAO inhibition in vitro, rat brain homogenate, substrate 14C-labelled serotonin (5-HT); format: biochemical; settings: substrate 5-HT 2×10^-4 M, 37° C.
T1 construct: 20 μl of rat brain homogenate; from tissue; host or cells: rat brain homogenate
T1 sequence (P21396 1-526): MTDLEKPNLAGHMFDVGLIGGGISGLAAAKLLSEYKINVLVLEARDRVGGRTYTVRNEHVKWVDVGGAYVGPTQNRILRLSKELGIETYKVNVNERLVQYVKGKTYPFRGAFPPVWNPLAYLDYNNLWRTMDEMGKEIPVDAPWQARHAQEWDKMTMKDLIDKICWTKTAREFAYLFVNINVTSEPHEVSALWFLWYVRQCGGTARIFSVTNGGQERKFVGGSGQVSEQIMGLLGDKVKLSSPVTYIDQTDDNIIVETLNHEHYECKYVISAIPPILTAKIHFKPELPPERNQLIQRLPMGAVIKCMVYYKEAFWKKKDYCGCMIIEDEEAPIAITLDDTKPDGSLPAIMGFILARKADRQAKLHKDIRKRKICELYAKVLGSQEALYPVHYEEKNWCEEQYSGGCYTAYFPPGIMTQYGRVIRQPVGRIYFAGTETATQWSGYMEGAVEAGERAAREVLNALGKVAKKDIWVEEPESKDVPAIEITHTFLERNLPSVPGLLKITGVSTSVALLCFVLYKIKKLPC
Method: (§1) The MAO inhibiting activity of the compounds in accordance with the invention can be determined in vitro or ex vivo using standard methods. The preparations to be tested were investigated in the tests described hereinafter, which were based on the methods of R. J. Wurtmann and J. A. Axelrod [Biochem. Pharmac. 12, 1439-41 (1963).
(§2) Isolated rat brains are homogenized in 0.1 molar potassium phosphate buffer (pH 7.4) in the ratio 1:4 (weight/volume), the homogenate is diluted with the same buffer in the ratio 1:5 (volume/volume) and stored at -20° C. A mixture of the following composition was used for the incubation:
(§3) 100 μl of 1M phosphate buffer (pH 6.7);
(§4) 100 μl of solution of the substance to be tested in water or in 10% aqueous dimethyl sulphoxide;
(§5) 20 μl of rat brain homogenate; and as the substrate
(§6) 80 μl of ^14 C-labelled serotonin (5-HT) or ^14 C-labelled phenylethylamine (PEA), the radioactive concentration of which amounts to 100,000 decay per minute and which is used in a final concentration of 2×10^-4 M and, respectively, 2×10^-5 M.
(§7) A pre-incubation at 37° C. is effected for 30 minutes prior to the addition of the substrate. The incubation (in the presence of the substrate) is likewise effected at 37° C. and lasts for 10 minutes. The reaction is stopped by the addition of 200 μl of 2N hydrochloric acid.
(§8) In order to extract the desaminated product, the mixture is shaken for 10 minutes with 5 ml of diethyl ether or with 5 ml of n-heptane depending on whether 5-HT or PEA is used as the substrate, whereupon the mixture is centrifuged, the aqueous phase is frozen in a dry-ice bath, the organic phase is transferred into a counting glass and the radioactive concentration is determined in a β-counter.
(§9) The activity of the MAO in comparison to the control homogenates (without substance to be tested) is obtained on the basis of the β-values and the IC50 is defined as that concentration of a substance to be tested which reduces the activity of the MAO upon the substrate 5-HT or PEA by 50%.

[1] = system: MAO in the brain (substrate 5-HT); assay: MAO inhibition ex vivo in brain of rats, substrate 5-HT; design: species or system male albino rats (Fu-SPF); settings: rat, 100 μmol/kg orally, 2 hrs., given in percentage of the control values
Method: as §1
(§10) The compounds to be tested are investigated for the inhibition of MAO in the brain and liver of male albino rats (Fu-SPF, 100-140 g. The test compounds are administered orally as a solution or suspension in water in a dosage of 100 μmol per kilogram body weight. After 2 hrs. the animals are narcotized and decapitated. The brain (without cerebellum) and a portion of the liver are dissected out and submitted analogously to the above-described procedure for the determination of the MAO inhibiting activity, whereby the amount of enzyme used is 20 μl of a 1:20 homogenate in the case of brain and 20 μl of a 1:80 homogenate in the case of liver. The activity of the compounds is determined from a comparison of the β-values with the values for control animals treated with vehicle and is given in percentage of the control values.

[2] = system: MAO in the liver (substrate PEA); assay: MAO inhibition ex vivo in liver of rats, substrate PEA; design: species or system male albino rats (Fu-SPF); settings: rat, 100 μmol/kg orally, 2 hrs., given in percentage of the control values
Method: as §1, §10

[3] = system: MAO in the liver (substrate 5-HT); assay: MAO inhibition ex vivo in liver of rats, substrate 5-HT; design: species or system male albino rats (Fu-SPF); settings: rat, 100 μmol/kg orally, 2 hrs., given in percentage of the control values
Method: as §1, §10

[4] = system: MAO in the brain (substrate PEA); assay: MAO inhibition ex vivo in brain of rats, substrate PEA; design: species or system male albino rats (Fu-SPF); settings: rat, 100 μmol/kg orally, 2 hrs., given in percentage of the control values
Method: as §1, §10

MAO (substrate PEA) = target: T2, MAO (substrate PEA) (Rattus norvegicus, UniProt P19643); assay: MAO inhibition in vitro, rat brain homogenate, substrate 14C-labelled phenylethylamine (PEA); format: biochemical; settings: substrate PEA 2×10^-5 M, 37° C.
T2 construct: 20 μl of rat brain homogenate; from tissue; host or cells: rat brain homogenate
T2 sequence (P19643 1-520): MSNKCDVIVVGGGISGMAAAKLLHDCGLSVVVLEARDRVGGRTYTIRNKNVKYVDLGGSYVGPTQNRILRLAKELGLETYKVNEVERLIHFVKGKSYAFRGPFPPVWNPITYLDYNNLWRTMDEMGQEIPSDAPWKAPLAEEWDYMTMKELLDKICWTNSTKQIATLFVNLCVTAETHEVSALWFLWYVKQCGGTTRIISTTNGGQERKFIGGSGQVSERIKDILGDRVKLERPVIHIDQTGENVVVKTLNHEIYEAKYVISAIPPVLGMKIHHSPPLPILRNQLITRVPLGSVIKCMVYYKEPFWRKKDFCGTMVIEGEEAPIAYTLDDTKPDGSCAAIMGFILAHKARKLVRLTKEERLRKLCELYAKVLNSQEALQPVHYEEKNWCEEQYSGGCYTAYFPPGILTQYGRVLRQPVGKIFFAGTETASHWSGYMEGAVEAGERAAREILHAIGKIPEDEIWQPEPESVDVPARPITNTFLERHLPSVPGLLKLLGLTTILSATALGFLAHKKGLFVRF
Method: as §1, §2, §3, §4, §5, §6, §7, §8, §9

Structure (SMILES)	pIC50 (MAO (substrate 5-HT))	Remaining brain MAO activity, 5-HT (% of control) [1] [%]	Remaining liver MAO activity (PEA), % of control [2] [%]	MAO inhibition, Liver, 5HT [3] [%]	Remaining brain MAO activity (PEA), % of control [4] [%]	pIC50 (MAO (substrate PEA))
CC1=NCCn2c1cc1c2-c2ccc(C)cc2CC1 [5,6,10,11-tetrahydro-3,8-dimethylbenzo[g]pyrazino[1,2-a]indole]	8.70	43	96	17	82	< 6.00
CC1=NCCn2c1cc1c2-c2ccc(OC(C)C)cc2CC1 [5,6,10,11-tetrahydro-3-isopropoxy-8-methylbenzo[g]pyrazino[1,2-a]indole]	9.40	8	75	10	60	7.85
CC1=NCCn2c1ccc2-c1ccc(OC2CCCC2)cc1 [6-[p-(Cyclopentyloxy)phenyl]-3,4-dihydro-1-methylpyrrolo[1,2-a]pyrazine]	8.00	67	56	38	33	> 9.00

— US5292732A, “Pyrrolopyrazine derivatives” (Hoffmann-La Roche Inc., priority 1991, dated 1994)
